US9023843B2, “Antimicrobial compounds and methods of making and using the same” (Melinta Therapeutics, Inc., priority 2009, dated 2015)

System: Eschericia coli strain ATCC25922
Assay: standard microdilution assay to determine minimum inhibitory concentrations (MICs)
Format: cell-based
Details: Escherichia coli, read-out: E. coli ATCC25922 MIC
Procedure: Minimum inhibitory concentrations (MICs) are determined by the microdilution method, typically in a final volume of 100 microliters, according to protocols outlined by The Clinical and Laboratory Standards Institute [CLSI; formerly the National Committee for Clinical Laboratory Standards (NCCLS)]. See CLSI: Methods for dilution antimicrobial susceptibility tests for bacteria that grow aerobically; approved standard-fifth edition. Wayne, Pa.: NCCLS; 2000. The assays can be also be performed in microtiter trays according to conventional methodologies as published by the CLSI. See CLSI. Methods for Dilution Antimicrobial Susceptibility Tests for Bacteria That Grow Aerobically; Approved Standard-Seventh Edition. CLSI Document M7-A7 [ISBN 1-56238-587-9] CLSI, 940 West Valley Road, Suite 1400, Wayne Pa. 19087-1898 USA, 2006).
The compounds of the present invention were tested for antimicrobial activity. The compounds were run against Eschericia coli strain ATCC25922 using a standard microdilution assay to determine minimum inhibitory concentrations (MICs). […] A “N/A” means that data is unavailable. It will be recognized by one skilled in the art that the compounds can be assessed against other bacterial organisms and that the presentation of data for activity against Eschericia coli is illustrative and in no way is intended to limit the scope of the present invention. The compounds of the present invention can be assayed against a range of other microorganisms depending upon the performance activity desired to be gathered. Furthermore, the “+”, “−”, and “N/A” representation and the selection of a cutoff value of 16 micrograms/ml is also illustrative and in no way is intended to limit the scope of the present invention.

Row | SMILES | MIC [µg/mL]
1 | N=C(N)NCCCN1CCCC(n2cc3c(nc2=O)Nc2cc(C4CCN(C(N)=O)CC4)ccc2O3)CC1 (stereo not drawn) [Compound 833] | < 16
2 | N=C(N)NCCCNC1CCC(n2cc3c(nc2=O)Nc2cc(C(=O)NCCCN4CCOCC4)ccc2O3)CC1 (stereo not drawn) [Compound 781] | < 16
3 | NCCCNCc1ccc(-n2cc3c(nc2=O)Nc2cc(-c4cnc(N5CCOCC5)nc4)ccc2O3)cc1 [Compound 440] | > 16
4 | COc1cc(-c2cc(=O)n3cc(-c4ccc(CNCCCN)cc4)c(=O)nc3[nH]2)cc(OC)c1OC [Compound 379] | > 16
5 | N=C(N)NCCCNC1CCC(n2cc3c(nc2=O)Nc2cc(C4CCN(C(=O)C5(N)CC5)CC4)ccc2O3)CC1 (stereo not drawn) [Compound 776] | < 16
6 | NCC1CCC(n2cc3c(nc2=O)Nc2cc(C4CCNCC4)ccc2O3)CC1 (stereo not drawn) [Compound 1369] | > 16
7 | N=C(N)NCCCN1CCC(n2cc3c(nc2=O)Nc2cc(C4CCN(C(=O)Nc5ccc(C(F)(F)F)cc5)CC4)ccc2O3)CC1 [Compound 729] | < 16
8 | NCCC(=O)NC1CCC(n2cc3c(nc2=O)Nc2cc(C4CCNCC4)ccc2O3)CC1 (stereo not drawn) [Compound 1086] | < 16
9 | NCCCNCc1ccc(-n2cc3c(nc2=O)Nc2ccc(-c4ccc(F)cc4)cc2O3)cc1 [Compound 393] | > 16
10 | NCCCNCc1ccc(-n2cc3c(nc2=O)Nc2cc(-c4ccc(F)cc4)ccc2O3)cc1 [Compound 402] | > 16
11 | N=C(N)NCCCNC(=O)[C@H]1CC[C@H](n2cc3c(nc2=O)Nc2c(CCCN)cccc2O3)CC1 [Compound 4008c] | > 16
12 | COCCN(C(=O)CN1CCC(c2ccc3c(c2)Nc2nc(=O)n(C4CCC(N)CC4)cc2O3)CC1)C1CCNCC1 (stereo not drawn) [Compound 1041] | > 16
13 | NCCCN(C(=O)CCN)C1CCC(n2cc3c(nc2=O)Nc2cc(C4CCNCC4)ccc2O3)CC1 (stereo not drawn) [Compound 1146] | < 16
14 | N=C(N)NCCCN1CCCC(n2cc3c(nc2=O)Nc2cc(C(=O)N4CCC[C@H](N)C4)ccc2O3)CC1 (stereo partly drawn) [Compound 950] | < 16
15 | NCCOc1cccc2c1Nc1nc(=O)n([C@H]3CC[C@H](N)CC3)cc1O2 [Compound 4005c] | > 16
16 | N=C(N)NCCCNC1CCC(n2cc3c(nc2=O)Nc2cc(C4CCN(C(=O)Nc5ccc(F)cc5)CC4)ccc2O3)CC1 (stereo not drawn) [Compound 765] | < 16
17 | NCCCN1CCC(n2cc3c(nc2=O)Nc2cc(C(=O)NCCc4ccc(F)cc4)ccc2O3)CC1 [Compound 660] | > 16
18 | NCCCNC(=O)C1CCC(n2cc3c(nc2=O)Nc2cc(C4CCNCC4)ccc2O3)CC1 (stereo not drawn) [Compound 1235] | < 16
19 | NCCCNCC1CCC(n2cc3c(nc2=O)Nc2cc(C4CCNCC4)ccc2O3)CC1 (stereo not drawn) [Compound 1269] | < 16
20 | NCCCNCc1ccc(-c2cn3c(=O)cc(-c4ccccc4F)[nH]c3nc2=O)cc1 [Compound 360] | > 16
21 | N=C(N)NCCCN1CCC(n2cc3c(nc2=O)Nc2cc(C(=O)NCC(F)(F)C(F)(F)F)ccc2O3)CC1 [Compound 643] | > 16
22 | NCCCN1CCCC(n2cc3c(nc2=O)Nc2cc(C4CCN(C(=O)CCN)CC4)ccc2O3)CC1 (stereo not drawn) [Compound 795] | > 16
23 | N=C(N)NCCCNC(=O)[C@H]1CC[C@H](n2cc3c(nc2=O)Nc2c(OCCN)cccc2O3)CC1 [Compound 4006c] | < 16
24 | N=C(N)NCCCN1CCC(n2cc3c(nc2=O)Nc2cc(C(=O)Nc4cc(F)c(F)cc4F)ccc2O3)CC1 [Compound 685] | > 16
25 | N=C(N)NCCCNC1CCC(n2cc3c(nc2=O)Nc2cc(C(=O)NCCN4CCNCC4)ccc2O3)CC1 (stereo not drawn) [Compound 741] | < 16
26 | NCCCOc1cccc2c1Nc1nc(=O)n([C@H]3CC[C@H](CN)CC3)cc1O2 [Compound 1449] | > 16
27 | N=C(N)NCCCN1CCC(n2cc3c(nc2=O)Nc2cc(-c4cccc(C(=O)N5CCOCC5)c4)ccc2O3)CC1 [Compound 651] | > 16
28 | N=C(N)NCCCCCN1CC[C@@H](n2cc3c(nc2=O)Nc2ccccc2O3)C1 [Compound 575] | > 16
29 | NCCCNCc1ccc(-n2cc3c(nc2=O)Nc2cc(Br)ccc2O3)cc1 [Compound 396] | > 16
30 | N=C(N)NCCCN1CCCC(n2cc3c(nc2=O)Nc2ccccc2O3)CC1 (stereo not drawn) [Compound 603] | < 16
